Measured values: ChEMBL document CHEMBL1201862, “PubChem BioAssay data set” (2004)
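Exposure lasted 48 hours, with cells grown in 96-well plates and compounds tested at five concentrations. GI50 marks 50% less growth.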 Activity calls are given as the source filed them. Cut-off read from the data, not from the text of the source: active = GI50 up to about 1.1 µM and inactive = higher.

Key:
Assay in all cases: inhibition of tumour cell growth, NCI panel, 48 h
RXF 393 = test system: RXF 393
NCI-H23 = test system: NCI-H23
SK-OV-3 = test system: SK-OV-3
HCT-15 = test system: HCT-15
SK-MEL-28 = test system: SK-MEL-28
OVCAR-8 = test system: OVCAR-8
K562 = test system: K562
UACC-62 = test system: UACC-62
Malme-3M = test system: Malme-3M
U-251 = test system: U-251
SN12C = test system: SN12C
UACC-257 = test system: UACC-257
SW-620 = test system: SW-620
HL-60 = test system: HL-60
MOLT-4 = test system: MOLT-4
LOX IMVI = test system: LOX IMVI
SK-MEL-2 = test system: SK-MEL-2
SNB-19 = test system: SNB-19
DU-145 = test system: DU-145
SNB-78 = test system: SNB-78

Compound	GI50 (RXF 393)	GI50 (NCI-H23)	GI50 (SK-OV-3)	GI50 (HCT-15) [µM]	GI50 (SK-MEL-28)	GI50 (OVCAR-8)	GI50 (K562)	GI50 (UACC-62)	GI50 (Malme-3M)	GI50 (U-251)	GI50 (SN12C)	GI50 (UACC-257)	GI50 (SW-620)	GI50 (HL-60)	GI50 (MOLT-4)	GI50 (LOX IMVI)	GI50 (SK-MEL-2)	GI50 (SNB-19)	GI50 (DU-145)	GI50 (SNB-78)
COc1cc2c(cc1OC)C(C1(O)CCCCC1)NCC2 (stereo not given)	> 100 µM (inactive)	> 100 µM (inactive)	> 100 µM (inactive)	> 100	> 100 µM (inactive)	> 100 µM (inactive)	> 100 µM (inactive)	> 100 µM (inactive)	> 100 µM (inactive)	> 100 µM (inactive)	> 100 µM (inactive)	> 100 µM (inactive)	> 100 µM (inactive)	> 100 µM (inactive)	> 100 µM (inactive)	> 100 µM (inactive)	> 100 µM (inactive)	–	–	–
CC(C)(C)OC(=O)NCC(=O)NC1c2ccsc2/C(=N/O)[C@H]1O (stereo not given in full)	> 100 µM (inactive)	> 100 µM (inactive)	> 100 µM (inactive)	> 100	> 100 µM (inactive)	> 100 µM (inactive)	5.28 µM (inactive)	> 100 µM (inactive)	> 100 µM (inactive)	> 100 µM (inactive)	> 100 µM (inactive)	> 100 µM (inactive)	> 100 µM (inactive)	> 100 µM (inactive)	> 100 µM (inactive)	> 100 µM (inactive)	> 100 µM (inactive)	> 100 µM (inactive)	> 100 µM (inactive)	–
O=C1c2ccccc2OCC12OC21C=CC(Cl)=CC1 (stereo not given)	24.9 µM (inactive)	16 µM (inactive)	51.8 µM (inactive)	28.6	28.4 µM (inactive)	–	16.6 µM (inactive)	27.3 µM (inactive)	18.5 µM (inactive)	17.3 µM (inactive)	15.7 µM (inactive)	32.2 µM (inactive)	29.4 µM (inactive)	15.7 µM (inactive)	0.113 µM (active)	13.5 µM (inactive)	21.7 µM (inactive)	29.8 µM (inactive)	14.4 µM (inactive)	–
COc1cc(Cc2ccc3c(c2C#N)N(C)c2ccccc2S3)cc(OC)c1OC	15.3 µM (inactive)	4.14 µM (inactive)	> 100 µM (inactive)	11	> 100 µM (inactive)	19.8 µM (inactive)	4.39 µM (inactive)	–	34.3 µM (inactive)	27.2 µM (inactive)	22.3 µM (inactive)	12.1 µM (inactive)	> 100 µM (inactive)	13.7 µM (inactive)	13.7 µM (inactive)	8.15 µM (inactive)	> 100 µM (inactive)	53.5 µM (inactive)	–	> 100 µM (inactive)
O=C(NO)c1coc2ccccc2c1=O	72.9 µM (inactive)	> 100 µM (inactive)	12.3 µM (inactive)	> 100	> 100 µM (inactive)	> 100 µM (inactive)	> 100 µM (inactive)	> 100 µM (inactive)	88.9 µM (inactive)	> 100 µM (inactive)	> 100 µM (inactive)	> 100 µM (inactive)	> 100 µM (inactive)	75.2 µM (inactive)	> 100 µM (inactive)	> 100 µM (inactive)	74.3 µM (inactive)	84.9 µM (inactive)	–	> 100 µM (inactive)
CS(=O)(=O)C(C#N)c1nc2ccccc2nc1Cl (stereo not given)	> 100 µM (inactive)	> 100 µM (inactive)	> 100 µM (inactive)	> 35.2	> 100 µM (inactive)	> 19.5 µM (inactive)	> 100 µM (inactive)	> 100 µM (inactive)	> 100 µM (inactive)	> 100 µM (inactive)	> 100 µM (inactive)	> 73.3 µM (inactive)	> 100 µM (inactive)	> 100 µM (inactive)	> 100 µM (inactive)	> 100 µM (inactive)	> 22.4 µM (inactive)	> 100 µM (inactive)	> 100 µM (inactive)	> 100 µM (inactive)
CC(=C/c1ccccc1)/C=C1/NC(=S)N(/C=C2\C(=O)Oc3ccccc3C2=O)C1=O	0.0664 µM (active)	41.6 µM (inactive)	–	45.7	52.1 µM (inactive)	52.4 µM (inactive)	39.6 µM (inactive)	–	–	41.3 µM (inactive)	98.6 µM (inactive)	66.7 µM (inactive)	–	25.8 µM (inactive)	38.1 µM (inactive)	53.5 µM (inactive)	> 100 µM (inactive)	65.6 µM (inactive)	45.8 µM (inactive)	–
CN(C)c1nc(N(C)C)nc(N(C)CN(C)c2ccccc2)n1	> 100 µM (inactive)	> 100 µM (inactive)	> 100 µM (inactive)	> 100	> 100 µM (inactive)	> 100 µM (inactive)	> 100 µM (inactive)	> 100 µM (inactive)	> 100 µM (inactive)	> 100 µM (inactive)	> 100 µM (inactive)	> 100 µM (inactive)	–	> 100 µM (inactive)	> 100 µM (inactive)	> 100 µM (inactive)	> 100 µM (inactive)	> 100 µM (inactive)	–	> 100 µM (inactive)
Cc1cc(NS(=O)(=O)c2ccc(NC(=O)c3cccc4c(Nc5ccc(S(N)(=O)=O)cc5)c5ccccc5nc34)cc2)no1	> 100 µM (inactive)	> 100 µM (inactive)	> 100 µM (inactive)	> 100	> 100 µM (inactive)	–	98.2 µM (inactive)	> 100 µM (inactive)	> 100 µM (inactive)	87.7 µM (inactive)	> 100 µM (inactive)	> 100 µM (inactive)	–	> 100 µM (inactive)	> 100 µM (inactive)	70.3 µM (inactive)	> 100 µM (inactive)	97.3 µM (inactive)	–	> 100 µM (inactive)
Cc1ccccc1-c1nc2c(C(=O)NCCN(C)C)cccc2[nH]1	78.9 µM (inactive)	57.7 µM (inactive)	46.5 µM (inactive)	43.8	> 93.3 µM (inactive)	42.8 µM (inactive)	20.9 µM (inactive)	40.3 µM (inactive)	30.5 µM (inactive)	34.5 µM (inactive)	40.4 µM (inactive)	39.8 µM (inactive)	26.5 µM (inactive)	26.5 µM (inactive)	27 µM (inactive)	38.3 µM (inactive)	> 85.3 µM (inactive)	48.6 µM (inactive)	–	51.5 µM (inactive)
O=C1OC(c2ccc(O)c(F)c2)(c2ccc(O)c(F)c2)c2cccc3cccc1c23	> 25 µM (inactive)	> 25 µM (inactive)	> 25 µM (inactive)	> 25	0.0643 µM (active)	> 25 µM (inactive)	14.8 µM (inactive)	17.5 µM (inactive)	> 25 µM (inactive)	> 25 µM (inactive)	1.34 µM (inactive)	> 25 µM (inactive)	> 25 µM (inactive)	5.57 µM (inactive)	5.35 µM (inactive)	> 25 µM (inactive)	> 25 µM (inactive)	> 25 µM (inactive)	> 25 µM (inactive)	–
NC(=O)Oc1ccccc1 [CARBAMIC ACID PHENYL ESTER]	> 100 µM (inactive)	> 100 µM (inactive)	> 100 µM (inactive)	> 100	> 100 µM (inactive)	> 100 µM (inactive)	> 100 µM (inactive)	–	–	> 100 µM (inactive)	> 100 µM (inactive)	> 100 µM (inactive)	> 100 µM (inactive)	> 100 µM (inactive)	> 100 µM (inactive)	> 100 µM (inactive)	–	> 100 µM (inactive)	> 100 µM (inactive)	–
